# Measurements published in US20140248291A1, “Modulation of Cellular Migration” (THE UAB RESEARCH FOUNDATION, priority 2011, published 2014).
# Legend:
# [1] = molecular target: T1, BK receptor in guinea-pig ileum preparations (Cavia porcellus, UniProt O70526); settings: read-out: K1 value, receptor binding; cited from earlier work
# T1 construct: from tissue; host or cells: guinea-pig ileum preparations
# T1 sequence (O70526 1-372): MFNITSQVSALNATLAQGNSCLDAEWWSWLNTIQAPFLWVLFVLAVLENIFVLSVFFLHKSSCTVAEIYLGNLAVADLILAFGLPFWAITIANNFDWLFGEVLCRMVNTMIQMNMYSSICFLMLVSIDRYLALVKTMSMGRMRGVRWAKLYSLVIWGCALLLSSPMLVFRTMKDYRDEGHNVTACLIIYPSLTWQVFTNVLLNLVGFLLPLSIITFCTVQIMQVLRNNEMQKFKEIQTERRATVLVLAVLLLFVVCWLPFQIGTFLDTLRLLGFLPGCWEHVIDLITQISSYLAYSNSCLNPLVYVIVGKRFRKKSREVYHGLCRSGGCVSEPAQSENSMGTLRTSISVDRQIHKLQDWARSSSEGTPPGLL
# [2] = tested on: D54-MG-GFP cells; assay: slice invasion assay, acute rat brain slices; type: cell-based, human
# Description: Experiments were performed on male and female Sprague-Dawley rats and were approved by the University of Alabama Institutional Animal Care and Use Committee. 17-22 days old pups were decapitated. Meninges were stripped, brain was taken out and put in ice-cold bath ACSF. Tissue was sliced using Vibrotome 3000 sectioning system. 300 μm thick slices were let recover in ACSF for 1 hour at room temperature, followed by recovery in ACSF at 37° C. in […] for 1 hour. CD31 antibody (BD Biosciences, Pharminogen, San Diego, Calif.) that labels blood vessels was added during the latter recovery period. Slices were then transferred into transwell migration cell culture inserts (BD Biosciences, San Jose, Calif.) with 8 μm pores that were pretreated with Vitronectin and blocked as described above. 50,000 D54-EGFP MG cells were then seeded on top of the slices and allowed to migrate/invade into the tissue for 2 hours at 37° C. During that period, slices were treated with 1 μM BK, 1 μM BK+5 μM HOE-140 or 5 μM HOE-140 added to the bottom of migration chamber in order to create a concentration gradient, similar to in vitro migration/invasion assay (FIG. 5C). In control experiments, drug treatment was omitted. Following double washes with PBS, slices were fixed in 4% paraformaldehyde overnight at 4° C. The following day, samples were washed three times with PBS and the slices were mounted between two coverslips for imaging on an Olympus Fluoview confocal microscope with 60× objective.
# Having established a dependence of migration and BK in vitro, the role of BK signaling in brain slices was examined, where the presence of neurons, glia and endothelial cells resemble the complex environment more reminiscent of the actual invasions of glioma cells in the human brain. To this end, acute brain slices of rat cortex, that can be maintained viable for many hours of investigation, were incubated with CD31 antibody to label blood vessels and seeded with D54-MG-GFP cells. Cells were allowed to migrate and invade for 2 hours in presence or absence of BK and in presence or absence of B2R antagonist HOE-140. The experimental set-up is illustrated in FIG. 5C. Representative confocal images of glioma cells invading into the slice in the presence of BK with and without antagonist HOE-140 added are shown in FIG. 5A, a, A, b and A, c. […] Similarly, most of the cells remained on the slices when treated only with B2R antagonist, as depicted in 40 μm cross-section in FIG. 5A, f. Data were analyzed by counting the number of glioma cells that attached to blood vessels in the presence of BK (77.4±4.1%, 391 cells analyzed), BK and antagonist HOE-140 (19.3±3.4%, 461 cells analyzed) or antagonist HOE-140 (42.7±4.2%, 452 cells analyzed) and compared with control (53.5±6.3%, 403 cells analyzed) where no drugs were added. […] Another important effect observed was that the glioma cells were invading deeper into the tissue in the presence of BK when compared to controls.
# [3] = molecular target: B2R; settings: NG108-15 cells, n=3; read-out: KI, displacement of [3H]-BK binding; cited from earlier work
# [4] = molecular target: T2, human B1 BK receptor (Homo sapiens, UniProt P46663); settings: cited from earlier work
# T2 sequence (P46663 1-353): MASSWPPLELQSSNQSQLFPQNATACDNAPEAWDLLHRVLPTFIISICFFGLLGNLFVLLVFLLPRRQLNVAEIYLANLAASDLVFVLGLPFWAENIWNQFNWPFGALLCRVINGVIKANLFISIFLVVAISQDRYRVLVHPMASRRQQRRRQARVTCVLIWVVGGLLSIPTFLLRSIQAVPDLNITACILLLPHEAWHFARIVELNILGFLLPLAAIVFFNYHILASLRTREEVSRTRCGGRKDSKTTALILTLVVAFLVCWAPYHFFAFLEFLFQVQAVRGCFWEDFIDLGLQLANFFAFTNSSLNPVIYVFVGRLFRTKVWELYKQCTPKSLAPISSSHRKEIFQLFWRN
# [5] = tested on: BK-induced hypotension and plasma extravasation; settings: in vivo; cited from earlier work
# [6] = tested on: BK-induced ventral root depolarizations; settings: rat spinal cord and tail preparation, n=3; cited from earlier work
Structure (SMILES),Ki [1] [nM],"glioma cells attached to blood vessels ([2]; 1 μM BK + 5 μM HOE-140, 2 h, 461 cells analyzed) [%]","glioma cells attached to blood vessels ([2]; 5 μM HOE-140 alone, 2 h, 452 cells analyzed) [%]",cells migrated up to 15 μm ([2]; HOE-140 alone) [%],cells migrated up to 20 μm ([2]; HOE-140 alone) [%],cells migrated up to 25 μm ([2]; HOE-140 alone) [%],cells on top of the slice ([2]; HOE-140 alone) [%],cells migrated up to 15 μm ([2]; HOE-140 in addition to BK) [%],cells migrated up to 20 μm ([2]; HOE-140 in addition to BK) [%],cells migrated up to 25 μm ([2]; HOE-140 in addition to BK) [%],cells remained on the top of the slice ([2]; HOE-140 in addition to BK) [%],Ki [3] [nM],interaction with human B1 BK receptor [4],BK-induced hypotension [5],BK-induced plasma extravasation [5],IC50 [6] [nM]
"N=C(N)NCCCC(NC(=O)[C@H](N)CCCNC(=N)N)C(=O)N1CCC[C@H]1C(=O)N1C[C@H](O)C[C@H]1C(=O)NCC(=O)N[C@@H](Cc1cccs1)C(=O)N[C@@H](CO)C(=O)N1Cc2ccccc2C[C@@H]1C(=O)N1C2CCCCC2C[C@H]1C(=O)N[C@H](CCCNC(=N)N)C(=O)O (stereo partly drawn) [HOE-140, D-Arg-[Hyp^3, Thi^5, D-Tic^7, Oic^8]bradykinin]",0.798,19.3±3.4,42.7±4.2,29.8,14.4,3.5,51.9,25.7,15.4,6.4,47.5,–,–,–,–,–
CN(C)CCN(C)CCNC(=O)[C@@H]1CCCN1S(=O)(=O)c1ccc(NNC(=S)NC(c2ccccc2)c2ccccc2)c([N+](=O)[O-])c1 [Bradyzide],–,–,–,–,–,–,–,–,–,–,–,0.51,does not interact,blocks,blocks,1.6 ± 0.05
